Measurements as given in the supplement of paper PMC10307832.

Columns and labels:
Test in all cases: relative viability (nuclei count vs DMSO), 5 days (fraction); higher = more cells survive
Ibrutinib + Pictilisib = compound: C=CC(=O)N1CCC[C@@H](n2nc(-c3ccc(Oc4ccccc4)cc3)c3c(N)ncnc32)C1 [Ibrutinib] + CS(=O)(=O)N1CCN(Cc2cc3nc(-c4cccc5[nH]ncc45)nc(N4CCOCC4)c3s2)CC1 [Pictilisib] (partner 1 µM)
How it was run: (§1)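 Lung cancer cell lines were pin-tool dosed in 1536-well plates on the day after seeding, with either a lone drug or a fixed anchor-drug dose plus five library-drug doses (not always all listed) in √10 steps. Nuclei were counted on 4× images after 5 days. Relative viability is the ratio of treated-well to vehicle-well nuclei counts, with each value a median of duplicate plates.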

PAC-1 + Linsitinib = compound: C=CCc1cccc(/C=N/NC(=O)CN2CCN(Cc3ccccc3)CC2)c1O [PAC-1] + C[C@]1(O)C[C@@H](c2nc(-c3ccc4ccc(-c5ccccc5)nc4c3)c3c(N)nccn32)C1 [Linsitinib] (partner 1 µM)
How it was run: as §1

Ibrutinib + Palbociclib = compound: C=CC(=O)N1CCC[C@@H](n2nc(-c3ccc(Oc4ccccc4)cc3)c3c(N)ncnc32)C1 [Ibrutinib] + CC(=O)c1c(C)c2cnc(Nc3ccc(N4CCNCC4)cn3)nc2n(C2CCCC2)c1=O [Palbociclib] (partner 0.5 µM)
How it was run: as §1

PAC-1 + Navitoclax = compound: C=CCc1cccc(/C=N/NC(=O)CN2CCN(Cc3ccccc3)CC2)c1O [PAC-1] + CC1(C)CCC(c2ccc(Cl)cc2)=C(CN2CCN(c3ccc(C(=O)NS(=O)(=O)c4ccc(N[C@H](CCN5CCOCC5)CSc5ccccc5)c(S(=O)(=O)C(F)(F)F)c4)cc3)CC2)C1 [Navitoclax] (partner 0.5 µM)
How it was run: as §1

Row | Cell Line | relative viability (Ibrutinib + Pictilisib; first compound 0.005 µM) | relative viability (Ibrutinib + Pictilisib; first compound 0.01581 µM) | relative viability (Ibrutinib + Pictilisib; first compound 0.05 µM) | relative viability (Ibrutinib + Pictilisib; first compound 0.1581 µM) | relative viability (Ibrutinib + Pictilisib; first compound 0.5 µM) | relative viability (PAC-1 + Linsitinib; first compound 0.02 µM) | relative viability (PAC-1 + Linsitinib; first compound 0.06325 µM) | relative viability (PAC-1 + Linsitinib; first compound 0.2 µM) | relative viability (PAC-1 + Linsitinib; first compound 2 µM) | relative viability (Ibrutinib + Palbociclib; first compound 0.005 µM) | relative viability (Ibrutinib + Palbociclib; first compound 0.01581 µM) | relative viability (Ibrutinib + Palbociclib; first compound 0.05 µM) | relative viability (Ibrutinib + Palbociclib; first compound 0.1581 µM) | relative viability (Ibrutinib + Palbociclib; first compound 0.5 µM) | relative viability (PAC-1 + Navitoclax; first compound 0.02 µM) | relative viability (PAC-1 + Navitoclax; first compound 0.06325 µM) | relative viability (PAC-1 + Navitoclax; first compound 0.2 µM) | relative viability (PAC-1 + Navitoclax; first compound 2 µM)
1 | 201T | 0.581 | 0.704 | 0.66 | 0.616 | 0.598 | 1.08 | 0.991 | 1.02 | 1 | 0.225 | 0.327 | 0.377 | 0.378 | 0.36 | 1.21 | 1.23 | 1.21 | 1.16
2 | A549 | 0.396 | 0.416 | 0.521 | 0.586 | 0.499 | 0.527 | 0.612 | 0.523 | 0.583 |  |  |  |  |  | 1.25 | 1.18 | 1.14 | 1.23
3 | A-427 | 0.553 | 0.623 | 0.719 | 0.405 | 0.743 | 1.14 | 1.14 | 1.15 | 1.08 | 0.549 | 0.533 | 0.491 |  | 0.496 | 1 | 0.92 | 0.908 | 0.907
4 | ABC-1 | 0.528 | 0.743 | 0.716 | 0.513 | 0.615 | 0.791 | 0.746 | 0.822 | 1.02 | 0.482 | 0.439 |  |  | 0.733 |  |  |  | 
5 | BEN | 0.347 | 0.535 | 0.518 | 0.5 | 0.536 | 0.934 | 0.91 | 0.918 | 0.873 | 0.462 | 0.465 | 0.491 | 0.459 | 0.453 | 0.0891 | 0.0706 | 0.0845 | 0.0674
6 | CAL-12T | 0.232 | 0.448 | 0.394 | 0.355 | 0.495 | 0.925 | 0.823 | 0.669 | 0.808 | 0.241 | 0.286 | 0.233 | 0.286 | 0.14 | 1.43 | 1.21 | 1.31 | 1.26
7 | COR-L23 | 0.626 | 0.742 | 0.885 | 0.925 | 0.729 | 0.945 | 0.937 | 0.861 | 1.03 | 0.285 | 0.304 | 0.282 | 0.353 | 0.332 | 0.874 | 0.984 | 0.908 | 0.999
8 | COR-L 105 | 0.316 | 0.418 | 0.488 | 0.341 | 0.325 | 0.962 | 0.852 | 0.868 | 1.13 | 0.403 | 0.406 | 0.424 | 0.393 | 0.303 | 0.852 | 0.725 | 1.38 | 0.841
9 | Calu-6 | 0.854 | 0.843 | 0.949 | 1.05 |  | 0.826 | 0.902 |  | 0.962 |  |  |  |  |  | 0.817 | 0.861 | 0.878 | 0.855
10 | ChaGo-K-1 | 0.356 | 0.83 | 0.592 |  | 0.956 |  |  |  |  | 0.94 | 0.886 | 0.953 | 0.869 | 0.901 | 1.2 | 1.08 | 1.21 | 1.08
11 | EBC-1 | 0.31 | 0.436 | 0.378 | 0.456 | 0.321 | 0.832 | 0.923 | 0.821 | 0.86 |  |  |  |  |  | 0.382 | 0.336 | 0.443 | 0.33
12 | EKVX | 0.341 | 0.391 | 0.435 | 0.461 | 0.278 | 1.03 | 1.02 | 0.941 | 0.917 | 0.304 | 0.314 | 0.259 | 0.269 | 0.155 | 1.07 | 0.926 | 0.86 | 0.979
13 | EMC-BAC-2 | 0.43 | 0.521 | 0.604 | 0.525 | 0.522 | 0.8 | 0.815 | 0.825 | 0.82 | 0.509 | 0.493 | 0.566 |  | 0.497 | 1.14 | 1.22 | 1.19 | 1.14
14 | EPLC-272H |  | 0.291 | 0.299 | 0.194 | 0.267 |  | 1.14 | 0.934 | 1.07 |  | 0.282 | 0.312 | 0.316 | 0.272 |  | 1.09 | 1 | 1.04
15 | H3255 | 0.389 | 0.397 | 0.263 | 0.415 | 0.14 | 1.05 | 0.952 | 0.862 | 0.913 | 0.312 | 0.328 | 0.293 | 0.324 | 0.26 | 0.544 | 0.537 | 0.561 | 0.595
16 | HARA | 0.185 | 0.515 | 0.383 | 0.412 | 0.232 | 0.873 | 0.958 | 0.851 | 1.09 | 0.284 | 0.217 | 0.241 | 0.254 | 0.223 | 1.15 | 1.11 | 1.14 | 1.15
17 | HCC-15 | 0.646 | 0.678 | 0.731 | 0.361 | 0.711 | 0.967 | 0.876 | 0.795 | 0.935 | 0.788 | 0.705 | 0.742 | 0.706 | 0.73 | 0.735 | 0.685 | 0.676 | 0.74
18 | HCC-44 | 0.593 | 0.467 | 0.527 | 0.599 | 0.694 | 0.684 | 0.68 | 0.678 | 0.712 | 0.982 | 0.977 | 1.03 | 0.979 | 0.92 | 1.01 | 0.977 | 0.978 | 1.01
19 | HCC-78 | 0.199 | 0.202 | 0.177 | 0.159 | 0.172 | 0.565 | 0.607 | 0.544 | 0.467 | 0.481 | 0.472 | 0.507 | 0.42 | 0.414 | 0.719 | 0.748 | 0.699 | 0.646
